These results are taken from patent publication US4031235A, “Insecticidal substituted acetate compounds” (Sumitomo Chemical Company, Limited, priority 1972, dated 1977).

In brackets after ≈: the same amount, converted by molar mass.

Series [1] deals with green rice leafhopper (Nephotettix bipuntatus cincticeps Uhler). Put plainly: Killing effect on green rice leafhopper on sprayed rice plants (Experimental Example 1). It is filed as in vivo. The conditions noted are these: 300-fold dilute solution, 10 ml/pot; one day after treatment; 1440 min. The method, then: (§1) An emulsifiable concentrate was prepared by blending each of the compounds (1) to (300) of the present invention, xylol and Sorpol SM-200 (trade name; manufactured by Toho Chemical Co., Ltd.) in a proportion of 25%, 50% and 25% (by weight), respectively. 20 to 25 day-old rice plants after seeding were grown in pots and sprayed with each 300-fold dilute solution of the emulsifiable concentrates thus prepared and a 300-fold dilute solution of carbaryl 30% wettable powder diluted with water as a control commercial agent in an amount of 10 ml/pot in each case and then the pots were covered by a cylindrical metal net. 15 small brown planthoppers (Delphacodes striatella Fallen) per group were released in each of the pots treated with carbaryl wettable powder, and compound (1) to (21) and (102) to (110), while 15 green rice leafhopper (Nephotettix bipuntatus cincticeps Uhler) per group were released in each of the pots treated with the carbaryl wettable powder and compounds (22) to (101) and (111) to (300).

In series [2] the test system is small brown planthoppers (Delphacodes striatella Fallen). Put plainly: Killing effect on small brown planthoppers on sprayed rice plants (Experimental Example 1). In kind it is in vivo. The conditions noted are these: 300-fold dilute solution, 10 ml/pot; one day after treatment; 1440 min. The method, then:
as §1

Series [3] has as its system oriental house flies. Put plainly: Activity on knock-down against oriental house flies (Experimental Example 5). It is filed as in vivo. The note with it: 0.2% oil preparation, 0.7 ml, 1.5 Kg/cm^2, (70 cm)^3 glass box. The method, then: (§2) 0.2% oil preparation was prepared from each of the compounds (1), (2), (8), (14), (22), (25), (26), (27), (51), (62), (73), (82), (86), (88), to (90), (92), (94), (96), (111), (119), (121), (165), (175), (180), (184), (185), (195), (200), (201), and (208) and allethrin as a control using deodorized kerosene.
20 oriental house flies per group were released in a (70 cm)^3 volume glass box and sprayed with each of the oil preparations prepared in Experimental Example 4 from the compounds of Table 3 below and allethrin in an amount of 0.7 ml under a pressure of 1.5 Kg/cm^2.

The subject of series [4] is adult mosquitoes (Culex pipiens). Put plainly: Knock-down of adult mosquitoes by 0.2% oil preparation (Experimental Example 4). In kind it is in vivo. The conditions noted are these: 0.2% oil preparation, 0.7 ml, 1.5 Kg/cm^2, (70 Cm)^3 glass box, read-out: mosquitoes knocked down. The method, then:
as §2

Series [5] concerns oriental house flies. Put plainly: Potentiation of insecticidal activity by addition of piperonyl butoxide, topical application (Experimental Example 6). It is filed as in vivo. The note with it: piperonyl butoxide 5 times active ingredient; acetone solution on thoracic dorsal plate. The method, then: To each of the compounds (22), (51), (62), (63), (82), (86), (125), (150), (160), (176), (177), (178), (184), (185), (191), (195), (200), (201), (204), (208), (210), (212) and (226) was added piperonyl butoxide in an amount of 5 times that of the active ingredient, respectively to prepare an acetone solution having a given concentration. Each of the thus prepared acetone solutions was applied onto a thoracic dosal plate of oriental house flies using a microshringe to observe a synergestic effect on insecticidal activity by piperonyl butoxide.

The nature of the next series: Oral toxicity to mice. The conditions noted are these: mouse, in vivo.
Series [6] has as its system Larvae of Mosquito (Culex pipiens). Put plainly: Insecticidal activity on larvae of mosquito (Experimental Example 2). In kind it is in vivo. The conditions noted are these: 24 h, read-out: LC50 (50% lethal concentration).

By LD50 is commonly meant the dose expected to kill half of the subjects tested.

Turning to `CNC(=O)Oc1cccc2ccccc12` [carbaryl], the killing effect result in series [1] and in series [2] was “more than 90%” in each case.
Consider `COc1ccc(C(C(=O)OCc2coc(Cc3ccccc3)c2)C(C)C)cc1` (stereo not drawn) [compound 22, 5'-Benzyl-3'-furylmethyl-α-isopropyl-4-methoxyphenylacetate], for which, in the series with oriental house flies [3], the “KT50 (50% knock-down time)” value was found to be 136 s. Besides, in series [4], the pest or weed control at 0.2 % is above 80%. For the same compound, the “Potentiation magnification of insecticidal activity by the addition of piperonyl butoxide” value (from here on “Potentiation magnification”) with oriental house flies [5] came out at 5.0. The same compound showed an LD50 in “Oral toxicity to mice” of 900 mg/kg.
For `CCC(C(=O)OCc1coc(Cc2ccccc2)c1)c1ccc(Cl)cc1` (stereo not shown) [compound 184], the “KT50 (50% knock-down time)” value in the series on oriental house flies [3] turned out to be 142 s. Also, the pest or weed control at 0.2 % in series [4] is above 80%. Besides, the “Potentiation magnification” value in the series on oriental house flies [5] was found to be 5.6. In series [6], the LC50 came to 7.8 ng/mL (≈ 0.0211 µM). Also, in the series “Oral toxicity to mice”, the median lethal dose (LD50) turned out to be 940 mg/kg.
As to `C=C(C)C(C(=O)OCc1cccc(Oc2ccccc2)c1)c1ccc(Cl)cc1` (stereo not drawn) [compound 119, 3'-Phenoxybenzyl-α-isopropenyl-4-chlorophenylacetate], the “KT50 (50% knock-down time)” value with oriental house flies [3] stood at 132 s. The pest or weed control at 0.2 % in series [4] was above 80%. In the series with oriental house flies [5], the “Potentiation magnification” value worked out at 5.5. Besides, the LC50 in series [6] was 4.4 ng/mL (≈ 0.0112 µM). In addition, the 50% lethal dose (LD50) in “Oral toxicity to mice” was above 1000 mg/kg.
